From ChEMBL document CHEMBL1201862, “PubChem BioAssay data set” (2004)
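1) Cells in 96-well plates. 2) Compound, 48 h, 5 concentrations. 3) Linear interpolation between surrounding doses. 4) Unreached endpoint = highest concentration. At the GI50, growth is halved.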 Activity calls are given as the source filed them. Cut-off read from the data, not from the text of the source: active = GI50 up to about 1.1 µM and inactive = higher.

What was measured:
Assay in all cases: NCI-60 cell line screen, 48 h
[1] = system: RXF 393
[2] = system: OVCAR-4
[3] = system: IGROV-1
[4] = system: EKVX
[5] = system: TK-10
[6] = system: 786-0
[7] = system: U-251
[8] = system: HCC 2998
[9] = system: NCI-H23
[10] = system: T47D
[11] = system: CCRF-CEM
[12] = system: KM12
[13] = system: A549
[14] = system: OVCAR-5
[15] = system: SW-620
[16] = system: SK-MEL-5
[17] = system: MDA-MB-231
[18] = system: SNB-75
[19] = system: UO-31
[20] = system: LOX IMVI

SMILES | GI50 [1] | GI50 [2] | GI50 [3] | GI50 [4] | GI50 [5] | GI50 [6] | GI50 [7] | GI50 [8] | GI50 [9] | GI50 [10] | GI50 [11] | GI50 [12] | GI50 [13] | GI50 [14] | GI50 [15] | GI50 [16] | GI50 [17] | GI50 [18] | GI50 [19] | GI50 [20]
COC(=O)c1c(C)c2c(c(C)c1O)OC(=O)c1c(C)cc(O)c(C=O)c1O2 | > 100 µM (inactive) | > 100 µM (inactive) | 69.7 µM (inactive) | > 100 µM (inactive) | > 100 µM (inactive) | > 100 µM (inactive) | > 100 µM (inactive) | > 100 µM (inactive) | > 100 µM (inactive) | > 100 µM (inactive) | > 100 µM (inactive) | > 100 µM (inactive) | > 100 µM (inactive) | > 100 µM (inactive) | > 100 µM (inactive) | > 100 µM (inactive) | > 100 µM (inactive) |  |  | 
O=C(CCC(=O)CC(O)(C(F)(F)F)C(F)(F)F)CC(O)(C(F)(F)F)C(F)(F)F | > 100 µM (inactive) | 33 µM (inactive) | 29.7 µM (inactive) | 35 µM (inactive) | 56.9 µM (inactive) | 46.1 µM (inactive) | 65 µM (inactive) | 58.1 µM (inactive) | 30.8 µM (inactive) | 29.2 µM (inactive) | 42.1 µM (inactive) | 26.4 µM (inactive) | 46.8 µM (inactive) | > 100 µM (inactive) | 63.5 µM (inactive) | 55.7 µM (inactive) | 29.4 µM (inactive) | 82.8 µM (inactive) | 23.5 µM (inactive) | 
CCN(CC)CCn1nc(N)c2nc3cc(Cl)ccc3nc21 | 88.9 µM (inactive) | > 100 µM (inactive) | 16.3 µM (inactive) | 80 µM (inactive) | > 100 µM (inactive) | 62.8 µM (inactive) | > 100 µM (inactive) | > 100 µM (inactive) | 91.6 µM (inactive) | > 100 µM (inactive) | > 10 µM (inactive) | 94.8 µM (inactive) | 49.8 µM (inactive) | 89.1 µM (inactive) | 63 µM (inactive) | 26.1 µM (inactive) | > 100 µM (inactive) |  | 23.8 µM (inactive) | 51.2 µM (inactive)
O=C1C=CC(=O)c2c1ccc1c3ccccc3n(Cc3ccc([N+](=O)[O-])cc3)c21 | > 100 µM (inactive) | > 100 µM (inactive) | > 100 µM (inactive) | > 100 µM (inactive) | > 100 µM (inactive) | > 100 µM (inactive) | > 100 µM (inactive) | > 100 µM (inactive) | > 100 µM (inactive) | 52.8 µM (inactive) | 10.9 µM (inactive) | > 100 µM (inactive) | > 100 µM (inactive) |  | 38.7 µM (inactive) | > 100 µM (inactive) | > 100 µM (inactive) | > 100 µM (inactive) | > 100 µM (inactive) | 
NCCCc1ccc2oc3ccccc3c2c1 | 17.9 µM (inactive) | 19.9 µM (inactive) | 20.6 µM (inactive) |  | 16.7 µM (inactive) | 13.7 µM (inactive) | 18.7 µM (inactive) | 10.6 µM (inactive) | 20.6 µM (inactive) | 17.7 µM (inactive) | 11.6 µM (inactive) |  | 17.1 µM (inactive) | 12.7 µM (inactive) | 18.9 µM (inactive) | 14.9 µM (inactive) | 17.7 µM (inactive) | 16.8 µM (inactive) | 15.8 µM (inactive) | 18.5 µM (inactive)
COc1cc(C2SC(=N)Nc3c2c(C)nn3C(=O)c2ccc(Cl)cc2)ccc1O (stereo unspecified) | > 10 µM (inactive) | > 10 µM (inactive) | > 10 µM (inactive) | > 10 µM (inactive) | > 10 µM (inactive) | > 10 µM (inactive) | > 10 µM (inactive) | > 10 µM (inactive) | > 10 µM (inactive) | > 10 µM (inactive) | > 10 µM (inactive) | > 10 µM (inactive) | > 10 µM (inactive) | > 10 µM (inactive) | > 10 µM (inactive) | > 10 µM (inactive) | > 10 µM (inactive) | > 10 µM (inactive) |  | > 10 µM (inactive)
Cc1ccc(C2NC(=N)NC3=C2CCOc2c3ccc3ccccc23)cc1 (stereo unspecified) | 31.8 µM (inactive) | 9.38 µM (inactive) |  | 7.8 µM (inactive) | 29.4 µM (inactive) | 2.61 µM (inactive) | 15.9 µM (inactive) | 7.16 µM (inactive) | 34.9 µM (inactive) | 25.2 µM (inactive) | 0.468 µM (active) | 4.21 µM (inactive) | 14.6 µM (inactive) | 41.6 µM (inactive) | 6.84 µM (inactive) | 12.9 µM (inactive) | 3.75 µM (inactive) | 5.21 µM (inactive) | 42.9 µM (inactive) | 
CCOC(=O)C1C(c2ccccc2)C2(C#N)C(=N)OC1(C)C2(C#N)C#N (stereo unspecified) | 15.8 µM (inactive) |  | 18.5 µM (inactive) | 21.1 µM (inactive) | 26.2 µM (inactive) | 13.6 µM (inactive) | 28.7 µM (inactive) | 13.8 µM (inactive) | 17.5 µM (inactive) | 32.1 µM (inactive) | 23.5 µM (inactive) | > 10 µM (inactive) | > 100 µM (inactive) | 21.7 µM (inactive) | 44.8 µM (inactive) | 10.5 µM (inactive) | 10.9 µM (inactive) | 1.51 µM (inactive) | 16.2 µM (inactive) | 16 µM (inactive)
Cn1nc2ccc3nccc(N4CCN(CCO)CC4)c3c2n1 | > 100 µM (inactive) | > 100 µM (inactive) | > 100 µM (inactive) |  | > 100 µM (inactive) | > 100 µM (inactive) | > 100 µM (inactive) | > 100 µM (inactive) | > 100 µM (inactive) | 42.3 µM (inactive) | 21.3 µM (inactive) | > 100 µM (inactive) | > 100 µM (inactive) | > 100 µM (inactive) | 59.4 µM (inactive) | > 100 µM (inactive) | > 100 µM (inactive) | > 100 µM (inactive) | > 100 µM (inactive) | 0.371 µM (active)
Cc1ccc(/C=N\NC(=O)c2ccncc2)s1 | > 100 µM (inactive) | > 100 µM (inactive) | > 100 µM (inactive) | > 100 µM (inactive) | > 100 µM (inactive) | > 100 µM (inactive) | > 100 µM (inactive) | > 100 µM (inactive) | > 100 µM (inactive) | > 100 µM (inactive) | > 100 µM (inactive) | > 100 µM (inactive) | > 100 µM (inactive) | > 100 µM (inactive) | > 100 µM (inactive) | > 100 µM (inactive) | > 100 µM (inactive) |  | > 100 µM (inactive) | 
Cc1cc(C#N)c[n+](C)c1 | > 100 µM (inactive) | > 100 µM (inactive) | > 100 µM (inactive) | > 100 µM (inactive) | > 100 µM (inactive) | > 100 µM (inactive) | > 100 µM (inactive) | > 100 µM (inactive) | > 100 µM (inactive) | > 100 µM (inactive) | > 100 µM (inactive) | > 100 µM (inactive) | > 100 µM (inactive) | > 100 µM (inactive) | > 100 µM (inactive) | > 100 µM (inactive) | > 100 µM (inactive) | > 100 µM (inactive) | > 100 µM (inactive) | 
CCCCNc1nc(NC2OCC(OC(C)=O)C(OC(C)=O)C2OC(C)=O)c(N=O)c(=O)n1C (stereo unspecified) | > 10 µM (inactive) | > 10 µM (inactive) | > 10 µM (inactive) | > 10 µM (inactive) | > 10 µM (inactive) | > 10 µM (inactive) | > 10 µM (inactive) | > 10 µM (inactive) | > 10 µM (inactive) | > 10 µM (inactive) | > 10 µM (inactive) | > 10 µM (inactive) | > 10 µM (inactive) | > 10 µM (inactive) | > 10 µM (inactive) | > 10 µM (inactive) | > 10 µM (inactive) | > 10 µM (inactive) |  | > 10 µM (inactive)
Cc1ccc(NC(Nc2ccc(C)cc2C)=C(C(Cl)=C(Cl)Cl)[N+](=O)[O-])c(C)c1 | 15.2 µM (inactive) | 15.7 µM (inactive) | 14.1 µM (inactive) | 15.1 µM (inactive) | 16.9 µM (inactive) | 16.1 µM (inactive) |  | 18 µM (inactive) | 6.22 µM (inactive) | 10.5 µM (inactive) | 3.35 µM (inactive) | 15.2 µM (inactive) | 12.6 µM (inactive) |  | 16.8 µM (inactive) | 4.63 µM (inactive) | 15.5 µM (inactive) | 9.35 µM (inactive) | 13.7 µM (inactive) | 5.83 µM (inactive)
CCOC(=O)c1[nH]c2nc(SC)nc(NC)c2c1N | > 100 µM (inactive) | > 100 µM (inactive) | > 100 µM (inactive) |  | > 100 µM (inactive) | > 100 µM (inactive) | > 100 µM (inactive) | 87.5 µM (inactive) | > 100 µM (inactive) | 83.8 µM (inactive) | 60 µM (inactive) | > 100 µM (inactive) | > 100 µM (inactive) | > 100 µM (inactive) | > 100 µM (inactive) | 30.3 µM (inactive) | > 100 µM (inactive) | 70.5 µM (inactive) | > 100 µM (inactive) | 43.2 µM (inactive)
CC(C)C1=CC23CCC4C(C)(C(=O)O)CCCC4(C)C2CC1C1C(=O)N(c2cccc(N4C(=O)C5C6CC7C8(C)CCCC(C)(C(=O)O)C8CCC7(C=C6C(C)C)C5C4=O)c2)C(=O)C13 (stereo unspecified) | 12.6 µM (inactive) | 24 µM (inactive) |  | 6.46 µM (inactive) | 15.9 µM (inactive) | 32 µM (inactive) | 3.24 µM (inactive) | 6.81 µM (inactive) | 3.4 µM (inactive) | 16.8 µM (inactive) | 6.31 µM (inactive) | 2.75 µM (inactive) | 14.7 µM (inactive) | 7.74 µM (inactive) | 16.3 µM (inactive) | 15.3 µM (inactive) | 14.8 µM (inactive) |  | 14.8 µM (inactive) | 
